Patent US20080009540A1, “Amorphous Atorvastatin Calcium” (priority 2004, published 2008)
Counter-ions that a name gives are not always drawn.

Key:
Assay type in all cases: physicochemical
[1] = Storage stability of amorphous atorvastatin calcium, Example 6 packaging (6 percent w/w water; nitrogen, silica gel)
Description: The following packaging procedure was followed: 1) amorphous atorvastatin calcium having a 6 percent w/w water content was initially packed in a polyethylene bag, which was then tied; 2) the tied polyethylene bag was placed in a black polyethylene bag with a silica gel pouch under a nitrogen atmosphere and then sealed; 3) the sealed black polyethylene bag was placed in a triple laminated bag along with a silica gel pouch, was purged with nitrogen, and sealed; and 4) the sealed laminated bag was stored in a HDPE drum.
table, where water was determined by the Karl Fischer method, and total organic impurities are expressed as area-percent, as determined by high performance liquid chromatography.

[2] = Storage stability of commercial-sized batch of amorphous atorvastatin calcium, Example 8 packaging
Description: A commercial-sized batch of amorphous atorvastatin calcium was packaged as follows:
a) amorphous atorvastatin calcium having a 6 percent w/w water content was initially placed into a clear polyethylene bag, air was removed, and the clear polyethylene bag was tied;
b) the tied clear polyethylene bag was placed into a black polyethylene bag along with a silica gel pouch and a package of oxygen absorbent, and then the black polyethylene bag was purged with nitrogen and sealed; and
c) the sealed black polyethylene bag was placed in a triple laminated bag along with a silica gel pouch, then the laminated bag was purged with nitrogen and sealed.

[3] = Storage stability of amorphous atorvastatin calcium, Example 7 packaging (2 percent w/w moisture; nitrogen, silica gel, oxygen absorbent)
Description: The following packaging procedure was followed: 1) amorphous atorvastatin calcium having a 2 percent w/w moisture content was placed in a white polyethylene bag, the bag was purged with nitrogen, and then the bag was tied; 2) the tied white polyethylene bag was placed into a black polyethylene bag, along with a silica gel pouch and a bag of oxygen absorbent, then the black bag was purged with nitrogen and sealed; 3) the sealed black polyethylene bag was placed into a triple laminated bag along with a silica gel pouch, and then the laminated bag was purged with nitrogen and sealed; and 4) the sealed laminated bag was stored in a HDPE drum.

[4] = 25° C. and 60% relative humidity, 2 Months
[5] = 25° C. and 60% relative humidity, 45 Days
[6] = 25° C. and 60% relative humidity, Initial
[7] = 40° C. and 75% relative humidity, 2 Months
[8] = 40° C. and 75% relative humidity, 45 Days
[9] = all three storage conditions, up to 2 Months
[10] = 25° C. and 60% relative humidity, 1 Month
[11] = 25° C. and 60% relative humidity, 2 Month
[12] = 25° C. and 60% relative humidity, 3 Month
[13] = 40° C. and 75% relative humidity, 1 Month
[14] = 40° C. and 75% relative humidity, 2 Month
[15] = 40° C. and 75% relative humidity, 3 Month
[16] = 40° C. and 75% relative humidity, 15 Days
[17] = 40° C. and 75% relative humidity, Initial

CC(C)c1c(C(=O)Nc2ccccc2)c(-c2ccccc2)c(-c2ccc(F)cc2)n1CC[C@@H](O)C[C@@H](O)CC(=O)O (relative stereo) [amorphous atorvastatin calcium, [R-(R*,R*)]-2-(4-fluorophenyl)-β,δ-dihydroxy-5-(1-methylethyl)-3-phenyl-4-[(phenylamino)carbonyl]-1H-pyrrole-1-heptanoic acid, calcium salt (2:1)]
Total Impurities ([1]; 2 to 8° C., 2 Months): 0.47 area-percent | Wt. Percent H2O ([1]; 2 to 8° C., 2 Months): 4.80 Wt. Percent | Total Impurities ([1]; 2 to 8° C., 45 Days): 0.46 area-percent | Wt. Percent H2O ([1]; 2 to 8° C., 45 Days): 4.50 Wt. Percent | Total Impurities ([1]; 2 to 8° C., Initial): 0.37 area-percent | Wt. Percent H2O ([1]; 2 to 8° C., Initial): 6.00 Wt. Percent | Total Impurities [1, 4]: 0.49 area-percent | Wt. Percent H2O [1, 4]: 3.97 Wt. Percent | Total Impurities [1, 5]: 0.51 area-percent | Wt. Percent H2O [1, 5]: 3.70 Wt. Percent | Total Impurities [1, 6]: 0.37 area-percent | Wt. Percent H2O [1, 6]: 6.00 Wt. Percent | Total Impurities [1, 7]: 0.50 area-percent | Wt. Percent H2O [1, 7]: 3.47 Wt. Percent | Total Impurities [1, 8]: 0.61 area-percent | Wt. Percent H2O [1, 8]: 3.49 Wt. Percent | Total Impurities ([1]; 40° C. and 75% relative humidity, Initial, HPLC): 0.37 area-percent | Wt. Percent H2O ([1]; 40° C. and 75% relative humidity, Initial, Karl Fischer): 6.00 Wt. Percent | Change during the storage periods [1, 9]: did not change appreciably | Total Impurities ([2]; 2 to 8° C., 1 Month): 0.37 area-percent | Wt. Percent H2O ([2]; 2 to 8° C., 1 Month): 5.4 Wt. Percent | Total Impurities ([2]; 2 to 8° C., 2 Month): 0.36 area-percent | Wt. Percent H2O ([2]; 2 to 8° C., 2 Month): 5.3 Wt. Percent | Total Impurities ([2]; 2 to 8° C., 3 Month): 0.34 area-percent | Wt. Percent H2O ([2]; 2 to 8° C., 3 Month): 5.4 Wt. Percent | Total Impurities ([2]; 2 to 8° C., Initial): 0.35 area-percent | Wt. Percent H2O ([2]; 2 to 8° C., Initial): 5.4 Wt. Percent | Total Impurities [2, 10]: 0.41 area-percent | Wt. Percent H2O [2, 10]: 4.6 Wt. Percent | Total Impurities [2, 11]: 0.42 area-percent | Wt. Percent H2O [2, 11]: 4.8 Wt. Percent | Total Impurities [2, 12]: 0.40 area-percent | Wt. Percent H2O [2, 12]: 4.9 Wt. Percent | Total Impurities [2, 6]: 0.35 area-percent | Wt. Percent H2O [2, 6]: 5.4 Wt. Percent | Total Impurities [2, 13]: 0.45 area-percent | Wt. Percent H2O [2, 13]: 4.3 Wt. Percent | Total Impurities [2, 14]: 0.47 area-percent | Wt. Percent H2O [2, 14]: 4.5 Wt. Percent | Total Impurities [2, 15]: 0.48 area-percent | Wt. Percent H2O [2, 15]: 5.0 Wt. Percent | Total Impurities [2, 16]: 0.39 area-percent | Wt. Percent H2O [2, 16]: 4.8 Wt. Percent | Total Impurities [2, 8]: 0.45 area-percent | Wt. Percent H2O [2, 8]: 4.3 Wt. Percent | Total Impurities [2, 17]: 0.35 area-percent | Wt. Percent H2O [2, 17]: 5.4 Wt. Percent | Change during the storage periods ([2]; all three storage conditions, up to 3 Month): did not change appreciably | Total Impurities ([3]; 2 to 8° C., 1 Month): 0.27 area-percent | Wt. Percent H2O ([3]; 2 to 8° C., 1 Month): 2.3 Wt. Percent | Total Impurities ([3]; 2 to 8° C., 2 Months): 0.30 area-percent | Wt. Percent H2O ([3]; 2 to 8° C., 2 Months): 2.6 Wt. Percent | Total Impurities ([3]; 2 to 8° C., Initial): 0.29 area-percent | Wt. Percent H2O ([3]; 2 to 8° C., Initial): 2.0 Wt. Percent | Total Impurities [3, 10]: 0.34 area-percent | Wt. Percent H2O [3, 10]: 2.4 Wt. Percent | Total Impurities [3, 4]: 0.38 area-percent | Wt. Percent H2O [3, 4]: 2.9 Wt. Percent | Total Impurities [3, 6]: 0.29 area-percent | Wt. Percent H2O [3, 6]: 2.0 Wt. Percent | Total Impurities [3, 13]: 0.41 area-percent | Wt. Percent H2O [3, 13]: 3.4 Wt. Percent | Total Impurities [3, 7]: 0.40 area-percent | Wt. Percent H2O [3, 7]: 3.2 Wt. Percent | Total Impurities [3, 16]: 0.34 area-percent | Wt. Percent H2O [3, 16]: 3.1 Wt. Percent | Total Impurities [3, 8]: 0.34 area-percent | Wt. Percent H2O [3, 8]: 3.2 Wt. Percent | Total Impurities [3, 17]: 0.29 area-percent | Wt. Percent H2O [3, 17]: 2.0 Wt. Percent | Change during the storage periods [3, 9]: did not change appreciably
